In patent publication US20040055024A1, “Conditional mutants of influenza virus M2 protein” (Medical Research Council, priority 1998, published 2004):

Key:
[1] = system: murine MEL cells; assay type: cell-based, mouse
[2] = system: T-lymphocyte development (thymus, spleen); conditions: mouse, in vivo
[3] = system: thymic rudiments; experiment: Foetal thymic organ culture of transgenic embryos in the presence of rimantadine; assay type: cell-based, mouse; conditions: thymic lobes of 15 day embryos, 7 to 10 days culture with rimantadine, FACS
Description: Opin. Immunol. 6:293-297.
Embryo sacs are removed from 15-day pregnant mice and the embryos released by cutting the umbilical cord. The embryos are stored on ice; non-embryo tissue is discarded. Any abnormal embryos, or asynchronous embryos as judged by size, are also discarded at this stage.
Foetal thymic lobes are dissected from the embryo and cultured on Costar filters (Coming) on RPMI medium. The filters are transferred to a new well of medium every day during the experiment.
At between 7 and 10 days, the thymic lobes are harvested, transferred to an eppendorf tube containing 200 μl medium, and the cells separated by teasing out mechanically. The cells are then analysed by FACS as described above.
In a second series of experiments, the thymic rudiments are cultured in the presence of rimantadine, and the cells analysed by FACS as described above.

For `CC(N)C12CC3CC(CC(C3)C1)C2` (stereo not shown) [Rimantadine], the “cell kinetics after induction” value [1] was “preceded by two cell doublings before terminal differentiation and growth arrest”, the “cloning of M2(H37A) mutant in MEL cells” value [1] was “the mutant can be cloned” and the “rescue of the lack of T-cells by administration of rimantadine” value [2] was “not rescuable”. The “rescue of T-cell production” value [3] was “able to rescue T-cell production in the thymic rudiments”.
